Measured values as given in paper PMC8175350, “Drug repurposing screens identify chemical entities for the development of COVID-19 interventions” (Nature Communications, 2021).
Counter-ions that a name gives are not always drawn. Like-named read-outs stand apart in the source and are kept apart here.

Experiments:
Calu-3 cells [1] = details: for Calu-3 uninfected cytotoxicity Sinf Average (%) / Calu-3 uninfected cytotoxicity Sinf Average: human
SARS-CoV-2 [2] = assay: microbe, parasite or virus in culture; format: cell-based; details: for Emax: Severe acute respiratory syndrome coronavirus 2, HeLa-ACE2, 24 h, curve-fit effect at infinite concentration, average, read-out: HeLa-ACE2 CoV-2 Sinf Average
SARS-CoV-2 [3] = assay: microbe, parasite or virus in culture; format: cell-based; details: for Emax: Severe acute respiratory syndrome coronavirus 2, Calu-3, 48 h
HeLa-ACE2 cells [4] = assay: Uninfected HeLa-ACE2 24 h live/dead cytotoxicity counter screen; format: cell-based, human; details: for HeLa-ACE2 uninfected cytotoxicity Sinf Average (%): Sinf average of the curves; for HeLa-ACE2 uninfected cytotoxicity Sinf Average: curve-fit effect at infinite concentration
[5] = as above; format: cell-based, human; details: human, uninfected HeLa-ACE2 cells
HeLa-ACE2 cells [6] = assay: cells; details: Homo sapiens; for Emax: HeLa-ACE2, 24 h, read-out: HeLa-ACE2 cell count Sinf Average
Calu-3 cells [7] = assay: cells; details: Homo sapiens; for Emax: Calu-3, 48 h
in vitro = details: human; for CC50: unrounded geometric mean
SARS-CoV-2 [8] = assay: microbe, parasite or virus in culture; format: cell-based; details: HeLa-ACE2
[9] = Severe acute respiratory syndrome coronavirus 2, HeLa-ACE2, geometric mean of replicates, read-out: HeLa-ACE2 CoV-2 EC50 GeoMean
[10] = Sinf average of the curves, read-out: Calu-3 CoV-2 Sinf Average (%)
[11] = Severe acute respiratory syndrome coronavirus 2, Calu-3, geometric mean of replicates, read-out: Calu-3 CoV-2 EC50 GeoMean
[12] = geometric mean of replicates, read-out: HeLa-ACE2 uninfected cytotoxicity CC50 GeoMean
[13] = HeLa-ACE2, read-out: HeLa-ACE2 cell count EC50 GeoMean (µM), geometric mean of replicates
[14] = read-out: Calu-3 cell count Sinf Average (%)
[15] = Calu-3, read-out: Calu-3 cell count EC50 GeoMean (µM), geometric mean of replicates
[16] = Calu-3 uninfected cytotoxicity CC50 GeoMean (µM)
[17] = Severe acute respiratory syndrome coronavirus 2, HeLa-ACE2, unrounded geometric mean, read-out: HeLa-ACE2 CoV-2 EC50 GeoMean
[18] = curve-fit effect at infinite concentration, average, read-out: Calu-3 CoV-2 Sinf Average
[19] = Severe acute respiratory syndrome coronavirus 2, Calu-3, unrounded geometric mean, read-out: Calu-3 CoV-2 EC50 GeoMean
[20] = unrounded geometric mean, read-out: HeLa-ACE2 uninfected cytotoxicity CC50 GeoMean
[21] = HeLa-ACE2, read-out: HeLa-ACE2 cell count EC50 GeoMean, unrounded geometric mean
[22] = read-out: Calu-3 cell count Sinf Average
[23] = Calu-3, read-out: Calu-3 cell count EC50 GeoMean, unrounded geometric mean
[24] = Calu-3 uninfected cytotoxicity CC50 GeoMean
[25] = uninfected cells, Fig. 2b group, read-out: HeLa-ACE2 CC50

O=c1[nH]c2ccc(C(F)(F)F)cc2c(-c2cc(Cl)ccc2O)c1CCO [BMS-223131]
uninfected Calu-3 CC50 [μM] (Calu-3 cells [1]): > 29.867 ×÷ 1 (n=3) μM
Calu-3 uninfected cytotoxicity Sinf Average (%) (Calu-3 cells [1]; 48 h): -100%
EC50 (SARS-CoV-2 [2]; [9]): > 9.59 µM
Emax (SARS-CoV-2 [3]; [10]): 100%
EC50 (SARS-CoV-2 [3]; [11]): 5.14 µM
HeLa-ACE2 uninfected cytotoxicity Sinf Average (%) (HeLa-ACE2 cells [4]): -100%
CC50 at 24 h [5, 12]: 21.4 µM
EC50 (HeLa-ACE2 cells [6]; [13]): > 9.59 µM
Emax (Calu-3 cells [7]; [14]): 100%
EC50 (Calu-3 cells [7]; [15]): > 9.98 µM
CC50 at 48 h (in vitro; [16]): > 29.9 µM

CNC(=O)n1ccc2cc(Oc3ccnc(NC(=O)c4ccc(C5CCN(CCO)CC5)cc4)c3)c(OCCOC)cc21 [E-7090]
uninfected Calu-3 CC50 (Calu-3 cells [1]): 14.98 ×÷ 1.32 (n=3) μM
Calu-3 uninfected cytotoxicity Sinf Average (Calu-3 cells [1]; 48 h): -97%
Emax (SARS-CoV-2 [2]): 100%
EC50 (SARS-CoV-2 [2]; [17]): 2.64 µM
Emax (SARS-CoV-2 [3]; [18]): 62%
EC50 (SARS-CoV-2 [3]; [19]): 0.753 µM
HeLa-ACE2 uninfected cytotoxicity Sinf Average (HeLa-ACE2 cells [4]): -100%
CC50 at 24 h [5, 20]: 21.2 µM
EC50 (HeLa-ACE2 cells [6]; [21]): > 9.59 µM
Emax (Calu-3 cells [7]; [22]): 73%
EC50 (Calu-3 cells [7]; [23]): > 2.59 µM
CC50 at 48 h (in vitro; [24]): 15 µM

C[C@]12O[C@H](C[C@]1(O)CO)n1c3ccccc3c3c4c(c5c6ccccc6n2c5c31)CNC4=O [Lestaurtinib]
Calu-3 uninfected cytotoxicity Sinf Average (Calu-3 cells [1]): -98%
Emax (SARS-CoV-2 [2]): 99%
EC50 (SARS-CoV-2 [2]; [17]): 0.546 µM
Emax (SARS-CoV-2 [3]; [18]): 91%
EC50 (SARS-CoV-2 [3]; [19]): 0.674 µM
HeLa-ACE2 uninfected cytotoxicity Sinf Average (HeLa-ACE2 cells [4]): -100%
CC50 at 24 h [5, 25]: ≤ 3 µM
CC50 at 24 h [5, 20]: 0.758 µM
Emax (HeLa-ACE2 cells [6]): 102%
EC50 (HeLa-ACE2 cells [6]; [21]): 0.614 µM
Emax (Calu-3 cells [7]; [22]): 100%
EC50 (Calu-3 cells [7]; [23]): > 4.71 µM
CC50 (in vitro; [24]): > 20.1 µM

O[C@@H]1CO[C@H]2[C@@H]1OC[C@H]2Oc1nc2nc(-c3ccc(-c4ccccc4)cc3)c(Cl)cc2[nH]1 [MK-8722]
uninfected Calu-3 CC50 [μM] (Calu-3 cells [1]): > 29.867 ×÷ 1 (n=3) μM
Calu-3 uninfected cytotoxicity Sinf Average (%) (Calu-3 cells [1]; 48 h): -95%
EC50 (SARS-CoV-2 [2]; [9]): > 9.59 µM
Emax (SARS-CoV-2 [3]; [10]): 100%
EC50 (SARS-CoV-2 [3]; [11]): 2.73 µM
HeLa-ACE2 uninfected cytotoxicity Sinf Average (%) (HeLa-ACE2 cells [4]): -100%
CC50 at 24 h [5, 12]: > 37.4 µM
EC50 (HeLa-ACE2 cells [6]; [13]): > 9.59 µM
Emax (Calu-3 cells [7]; [14]): 100%
EC50 (Calu-3 cells [7]; [15]): > 5.66 µM
CC50 at 48 h (in vitro; [16]): > 29.9 µM

CC[C@H]1CN2CCc3cc(OC)c(OC)cc3[C@@H]2C[C@@H]1C[C@H]1NCCc2cc(OC)c(OC)cc21 [Emetine]
Calu-3 uninfected cytotoxicity Sinf Average (Calu-3 cells [1]): -47%
Emax (SARS-CoV-2 [2]): 100%
EC50 (SARS-CoV-2 [2]; [17]): 0.0601 µM
Emax (SARS-CoV-2 [3]; [18]): 100%
EC50 (SARS-CoV-2 [3]; [19]): 0.444 µM
HeLa-ACE2 uninfected cytotoxicity Sinf Average (HeLa-ACE2 cells [4]): -99%
CC50 at 24 h [5, 25]: ≤ 3 µM
CC50 at 24 h [5, 20]: 0.34 µM
Emax (HeLa-ACE2 cells [6]): 98%
EC50 (HeLa-ACE2 cells [6]; [21]): 0.783 µM
Emax (Calu-3 cells [7]; [22]): 78%
EC50 (Calu-3 cells [7]; [23]): > 3.56 µM
CC50 (in vitro; [24]): > 8.87 µM

C=CC(=O)Nc1cc(Nc2nccc(-c3cn(C)c4ccccc34)n2)c(OC)cc1N(C)CCN(C)C [Osimertinib]
EC50 ratio between the standard 24 h and the TOA assay (SARS-CoV-2 [8]): > 8
SI in Calu-3 (SARS-CoV-2 [3]; CC50/EC50): < 2

CN(C)C(=O)COC(=O)Cc1ccc(OC(=O)c2ccc(NC(=N)N)cc2)cc1 [Camostat mesylate]
EC50 (SARS-CoV-2 [2]; [17]): > 9.59 µM
Emax (SARS-CoV-2 [3]; [18]): 89%
EC50 (SARS-CoV-2 [3]; [19]): 0.0536 µM
CC50 at 24 h [5, 20]: > 39.8 µM
EC50 (HeLa-ACE2 cells [6]; [21]): > 9.59 µM
Emax (Calu-3 cells [7]; [22]): 78%
EC50 (Calu-3 cells [7]; [23]): 0.0913 µM
CC50 (in vitro; [24]): > 29.9 µM

CSc1ccc(CN2CCCC(Nc3ccc4[nH]ncc4c3)C2)cc1 (stereo not shown) [INS-117548]
uninfected Calu-3 CC50 [μM] (Calu-3 cells [1]): > 29.875 ×÷ 1 (n=2) μM
Calu-3 uninfected cytotoxicity Sinf Average (%) (Calu-3 cells [1]; 48 h): -92%
EC50 (SARS-CoV-2 [2]; [9]): > 9.59 µM
Emax (SARS-CoV-2 [3]; [10]): 77%
EC50 (SARS-CoV-2 [3]; [11]): > 3.55 µM
HeLa-ACE2 uninfected cytotoxicity Sinf Average (%) (HeLa-ACE2 cells [4]): -100%
CC50 at 24 h [5, 12]: > 39.8 µM
EC50 (HeLa-ACE2 cells [6]; [13]): > 9.59 µM
Emax (Calu-3 cells [7]; [14]): 55%
EC50 (Calu-3 cells [7]; [15]): 0.31 µM
CC50 at 48 h (in vitro; [16]): > 29.9 µM

CC(=O)N1C[C@H](O)C[C@H]1C(=O)N[C@@H](CCCNC(=N)N)C(=O)c1nc2ccccc2s1 [RWJ-56423]
uninfected Calu-3 CC50 [μM] (Calu-3 cells [1]): > 29.867 ×÷ 1 (n=3) μM
EC50 (SARS-CoV-2 [2]; Severe acute respiratory syndrome coronavirus 2, HeLa-ACE2, reconfirmed hits, read-out: HeLa-ACE2 SARS-CoV-2 EC50): > 9.6 µM
EC50 (SARS-CoV-2 [2]; [9]): > 9.59 µM
Emax (SARS-CoV-2 [3]; [10]): 89%
EC50 (SARS-CoV-2 [3]; [11]): 1.23 µM
EC50 (SARS-CoV-2 [3]; Severe acute respiratory syndrome coronavirus 2, Calu-3, reconfirmed hits, read-out: Calu-3 SARS-CoV-2 EC50): 1.23 µM
CC50 at 24 h [5, 12]: > 39.8 µM
CC50 at 24 h ([5]; reconfirmed hits, read-out: HeLa-ACE2 Uninf. cells CC50): > 40 µM
EC50 (HeLa-ACE2 cells [6]; [13]): > 9.59 µM
Emax (Calu-3 cells [7]; [14]): 100%
EC50 (Calu-3 cells [7]; [15]): 2.85 µM
CC50 at 48 h (in vitro; Calu-3 Uninf. cells CC50 (µM)): > 30 µM
CC50 at 48 h (in vitro; [16]): > 29.9 µM
